Reference: patent US20150072416A1, “METABOLITE FOR IMPROVING PRODUCTION, MAINTENANCE AND PROLIFERATION OF PLURIPOTENT STEM CELLS, COMPOSITION COMPRISING THE SAME, AND METHOD OF CULTURING PLURIPOTENT STEM CELL USING THE SAME” (KOREA RESEARCH INSTITUTE OF BIOSCIENCE AND BIOTENOLOGY, priority 2012, published 2015)

Columns and labels:
Format in all cases: cell-based
[1] = system: H9 human embryonic stem cells; test: Mitochondrial membrane potential of human embryonic stem cells by JC-1 staining; details: 0.1 mM nicotinamide in mTeSR1
Description: In an example of the present invention, the membrane potential (ΔΨm) of mitochondria was measured after treatment with nicotinamide. When human embryonic stem cells were maintained and cultured, the membrane potential of mitochondria in the human embryonic stem cells was measured by JC-1 staining after addition of various concentrations of nicotinamide to mTeSR1. After JC-1 staining, activated mitochondria are stained with red, and non-activated mitochondria are stained with green. The ratio of the number of red-stained mitochondria to the number of green-stained mitochondria is measured, and an increase in the ratio indicates an increase in activated mitochondria.
In addition, the present inventors measured the membrane potential (ΔΨm) of mitochondria. When human embryonic stem cells were maintained and cultured, various concentrations of nicotinamide were added to mTeSR1, and then the mitochondrial membrane potential of the human embryonic stem cells was measured by JC-1 staining. After JC-1 staining, activated mitochondria are stained with red, and non-activated mitochondria are stained with green. The ratio of the number of red-stained mitochondria to the number of green-stained mitochondria is measured, and an increase in the ratio indicates an increase in the number of activated mitochondria.

[2] = system: human fibroblasts transfected with reprogramming factor OSKM; test: Measurement of reactive oxygen species during reprogramming; details: 1 mM, day 19 of induction of reprogramming
Description: On day 19 of induction of reprogramming, the cells were dissociated into single cells by trypsin, and then stained with 5 μM of CM-H2DCFDA (2,7-dichlorodihydrofluresceindiacetat) at 37° C. for 30 minutes. Cells treated with 100 μM of hydrogen peroxide (H2O2) were used as a positive control group for the formation of reactive oxygen species, and the degree of fluorescence staining was measured by flow cytometry and quantified.

[3] = system: human fibroblasts transfected with reprogramming factor OSKM; test: Quantification of protein damage caused by oxidative stress; details: 1 mM
Description: On days 12, 19 and 26 of induction of reprogramming, protein was isolated from a control group and a nicotinamide-treated group (Nam), after which it was quantified and treated with 2,4-dinitrophenylhydrazine to expose the carbonyl group. The protein was separated according to molecular weight using 10% SDS-polyacrylamide gel, and then protein damage caused by oxidative stress was analyzed using dinitrophenyl antibody. After normalization to the expression level of β-actin, the degree of damage was quantified relative to the degree of damage to hFFs taken as 1.

[4] = system: human embryonic stem cells and human induced pluripotent stem cells; test: Maintenance of undifferentiated state of pluripotent stem cells (morphology, AP staining); details: for undifferentiated state in UM: 0.1 mM nicotinamide added to UM
Description: Human embryonic stem cells (hESC) H9 (NIH Code, WA09; WiCell Research Institute, Madison, Wis.) and H1 (NIH Code, WA01; WiCell Research Institute) and induced pluripotent stem cells (hiPSC) were each cultured with hESC culture medium (unconditioned medium; UM) or MEF-CM (conditioned medium) on γ-irradiated MEFs (mouse embryonic fibroblasts) or on plates coated with Matrigel (BD Biosciences, Franklin Lakes, N.J.). The cultured human embryonic stem cells and induced pluripotent stem cells were treated with collagenase IV (1 mg/ml; Invitrogen) or dispase (1 mg/ml; Invitrogen) once a week and subcultured. MEF-CM was prepared as γ-irradiated MEF according to a known method (Xu C. Nat Biotechnol 19, 971-974) and supplemented with 8 ng/ml of bFGF. UM contained 80% DMEM/F12, 20% knockout serum replacement (KSR, Invitrogen, Carlsbad, Calif.), 1% non-essential amino acids (NEAA, Invitrogen), 1 mM L-glutamine (Invitrogen), 0.1 mM β-mercaptoethanol (Sigma, St. Louis, Mo.) and 6 ng/ml bFGF (basic fibroblast growth factor, Invitrogen). Particularly, for culture in the absence of feeder cells and serum, human embryonic stem cells and human induced pluripotent stem cells were cultured in mTeSR1 medium (StemCell Technologies). Human newborn foreskin fibroblasts (hFF, ATCC, catalog number CRL-2097; American Type Culture Collection, Manassas, Va.) were cultured in a DMEM medium containing 10% FBS (fetal bovine serum, Invitrogen), 1% non-essential amino acids, 1 mM L-glutamine and 0.1 mM β-mercaptoethanol.
AP staining was performed using a commercial AP kit (Sigma) according to the manufacturer's instruction. Images of AP-positive cells were recorded with HP Scanjet G4010. Also, bight field images were obtained with an Olympus microscope (IX51, Olympus, Japan).
In order to verify the effect of nicotinamide on the maintenance of undifferentiated state of pluripotent stem cells, the present inventors performed the following experiment. While human embryonic stem cells and human pluripotent stem cells were cultured in MEF-CM or UM on feeder-free Matrigel, various NAD precursors including nicotinamide were added to the stem cells, and then the effects of the NAD precursors on the stem cells were verified by examining the morphological change and the expression pattern of AP that is a human embryonic stem cell-specific marker.
In addition, in order to examine the effects of nicotinamide at various concentrations, various concentrations of nicotinamide were added to UM, and the degrees of maintenance of undifferentiation of human embryonic stem cells and human induced pluripotent stem cells, which are pluripotent stem cells, were examined. […] However, it was shown that the addition of a low concentration (<0.01 mM) or high concentration (>5 mM) of nicotinamide could not maintain the undifferentiated state of pluripotent stem cells (FIG. 30).
The effect of nicotinamide effective for maintaining the undifferentiated state of human embryonic stem cells and human induced pluripotent stem cells, which are pluripotent stem cells, was verified under various conditions. […] In order to eliminate the use of feeder cell-derived factors and animal serum and ensure culture conditions including a medium (CDM) whose components are known, various concentrations of nicotinamide were added to mTeSR1 (CDM) without feeder cells, and the effects thereof were examined. As a result, it could be seen that the addition of 0.1 mM of nicotinamide was effective for maintaining the undifferentiated state of various human embryonic stem cell lines (H1 and H9) and the human induced pluripotent stem cell line (hiPS) (FIG. 31).

[5] = system: H9 human embryonic stem cells and human induced pluripotent stem cells; test: Low-density cloning after single-cell dissociation (AP staining, apoptosis); details: AP staining and apoptosis assays
Description: In order to examine the effect of nicotinamide on a reduction in the apoptosis of human pluripotent stem cells, dual apoptosis assay (Biotium, Hayward, Calif.) was performed. Embryonic stem cells or cells reprogrammed were stained with NucView™488 Caspase-3 Substrate (green)/Annextin V (red) at room temperature for 30 minutes, followed by washing with PBS. At least 4 sections of each sample were imaged with an Olympus fluorescence microscope (IX51, Olympus), and the number of cells stained with green (Caspase-3) was counted to quantify the degree of apoptosis.
In order to examine the effect of nicotinamide on the survival of human pluripotent stem cells at low density, human pluripotent stem cells were treated with TrypLE reagent (Invitrogen) for 3 minutes, and then dissociated into single cells by pipetting and seeded on a Matrigel-coated 96-well plate at a density of 500 cells per well. After 5 days of culture, human pluripotent stem cell colonies started to be formed, and the cells were fixed with 4% paraformaldehyde, and then AP staining was performed or the level of apoptosis was measured.

NC(=O)c1cccnc1 [nicotinamide]
number of activated mitochondria / mitochondrial membrane potential (JC-1 red/green) [1]: significantly increased | formation of reactive oxygen species [2]: inhibited | amount of damaged protein (oxidative stress) [3]: decreased | number of AP-positive cells when feeder cells were used ([4]; 0.1 mM): most increased | undifferentiated state in UM [4]: maintained in an undifferentiated state | undifferentiated state in UM ([4]; listed as Nam): most effectively maintained | maintaining the undifferentiated state in mTeSR1 (CDM) without feeder cells ([4]; 0.1 mM, H1, H9 and hiPS): effective | induction of differentiation in UM, among NAD+ precursors and NAD+ ([4]; H9 in UM treated with nicotinamide (FIG. 29)): most effectively inhibited | high concentration that could not maintain the undifferentiated state ([4]; UM): > 5 mM | low concentration that could not maintain the undifferentiated state ([4]; UM): < 0.01 mM | morphology of hESCs cultured in UM, in comparison with other NAD precursors ([4]; UM containing nicotinamide (1 mM), 6 days, feeder-free Matrigel): showed the morphology of undifferentiated human embryonic stem cells | nicotinamide concentration in UM conserving undifferentiated morphology and positive AP expression ([4]; hESCs and hiPSCs cultured in UM): 0.1-1 mM | survival and self-renewal abilities at low density after single-cell dissociation [5]: significantly increased
